The record followed here is patent US5624673A, “Cosmetic or pharmaceutical composition containing a prunella extract” (priority 1993, dated 1997).

The assay relates to erythema caused by ultraviolet. Kind of assay: Anti-inflammatory activity on the erythema caused by ultraviolet. Type of assay: in vivo, Dunkin Hartley guinea-pigs. Conditions: 1% in hydrocerine. The procedure: This is investigated using 41 female Dunkin Hartley guinea-pigs weighing 400 to 450 g, divided into 6 groups of 6 and one group of 5 guinea-pigs.
For one week before the start of the experiment, the animals are kept at a temperature of 20° plus or minus 1° C. and at a hygrometry of 50% plus or minus 10% and with 12 h of light per day. On the day before the experiment, the animals are carefully shaved on the back using an AESCULAP shaver equipped with a 1/10 mm comb, and then shaved gently on both sides using a Braun razor. A depilating cream is subsequently applied (to a thickness of about 2 mm) and allowed to work for 15 min.
The cream is removed with a wooden spatula and the guinea-pigs are then rinsed with tepid water and dried.
The guinea-pigs then receive the same irradiation on both sides, the area of the irradiated regions being 2 cm^2. The right side receives the test product, the product being spread beyond the 2 cm^2 so as to make it possible to observe any redness which might be due to the product and which would mask an antiphlogistic effect. The left side receives the placebo.
Application of the placebo to the left side enables the effect of UV to be measured under the same conditions on the zones treated with the product and on the untreated zones. This also makes it possible to see any action of the placebo and to assess, in comparison with the placebo, the zone to which the product has been applied.
The products are applied immediately after irradiation and then every 2 h up to 6 h after irradiation.
The amount applied is not measured but is spread uniformly over the whole region (about 1 mg).
The irradiation device used consists of a Biotronic UV312-365 mercury lamp (Vilbert-Loumat). The device for measuring the UV energy, which consists of a photoelectric cell measuring the luminous power of the UV, is fixed to a support at the center of the irradiated zone. This cell is connected to a radiometer on which the desired energy--in this case 2.16 J/cm^2 of UVB (distance from guinea-pig to lamp=20 cm)--is programmed. The lamp switches off automatically once the total amount of energy has been emitted.
This irradiation causes an erythema equal to 3 plus or minus 0.5 (see scale) at 6 h.
20 min before irradiation, the animals are anesthetized with an intraperitoneal dose of 0.5 ml/kg of pentobarbital sodium.
Six hours after irradiation, the erythema in each region is evaluated macroscopically according to the following scale:
0 ............... no erythema
1 ............... slight but visible erythema
2 ............... clearly visible erythema
3 ............... substantial erythema
One guinea-pig with a score of 1 according to the above notation, one guinea-pig with a score of 2 and one guinea-pig with a score of 3 are singled out after having been thoroughly evaluated as such, and are taken as standard references so that half-unit scores can be awarded. A guinea-pig not evaluated with 1 (standard reference) and not evaluated with 2 will be given a score of 1.5.
The results obtained are used to calculate the percentage activity according to the following formula: [formula]
The tested extracts according to the invention are in a concentration of 0.2% by weight in the gel. The indomethacin is in a concentration of 1% in the hydrocerine.

Values joined by “and” are separate entries in the source; they are usually repeats but may differ in a detail not shown here. Equal values may be shown once.

As for `COc1ccc2c(c1)c(CC(=O)O)c(C)n2C(=O)c1ccc(Cl)cc1` [Indomethacin, indomethacin], the “difference (UV+placebo)-(UV+product), individual animal” value is 2.5 and 2 and 3. In addition, the “Erythema score, product side (individual animal)” value (6 h after UVB 2.16 J/cm^2, scale 0-3) is 0.5 and 1 and 0. Also, the “Erythema score, product side, mean” value (SD 0.41, placebo mean 2.9, significant at 0.1% (Student t 11.18)) was determined as 0.4. The “difference (UV+placebo)-(UV+product), mean” value (SD 0.5) was 2.5. Moreover, for the setting “significant at 0.1%”, the “protection (percentage activity)” value worked out at 86.2%.
